Results published in patent US20230002327A1, “SMALL-MOLECULE REGULATOR OF TLR8” (TSINGHUA UNIVERSITY, priority 2019, published 2023).

Columns and labels:
TLR8 = target: T1, TLR8 (Homo sapiens, UniProt Q9NR97); assay: Inhibition of R848-induced signaling in HEK-Blue hTLR8 cell line (Quanti-Blue); assay type: cell-based; details: HEK-Blue hTLR8 cell line; normalized, ligand+DMSO = 100% activity, untreated = 0%
T1 construct: host or cells: HEK-Blue hTLR8 (HEK293-derived SEAP reporter cells)
T1 sequence (Q9NR97 27-1041): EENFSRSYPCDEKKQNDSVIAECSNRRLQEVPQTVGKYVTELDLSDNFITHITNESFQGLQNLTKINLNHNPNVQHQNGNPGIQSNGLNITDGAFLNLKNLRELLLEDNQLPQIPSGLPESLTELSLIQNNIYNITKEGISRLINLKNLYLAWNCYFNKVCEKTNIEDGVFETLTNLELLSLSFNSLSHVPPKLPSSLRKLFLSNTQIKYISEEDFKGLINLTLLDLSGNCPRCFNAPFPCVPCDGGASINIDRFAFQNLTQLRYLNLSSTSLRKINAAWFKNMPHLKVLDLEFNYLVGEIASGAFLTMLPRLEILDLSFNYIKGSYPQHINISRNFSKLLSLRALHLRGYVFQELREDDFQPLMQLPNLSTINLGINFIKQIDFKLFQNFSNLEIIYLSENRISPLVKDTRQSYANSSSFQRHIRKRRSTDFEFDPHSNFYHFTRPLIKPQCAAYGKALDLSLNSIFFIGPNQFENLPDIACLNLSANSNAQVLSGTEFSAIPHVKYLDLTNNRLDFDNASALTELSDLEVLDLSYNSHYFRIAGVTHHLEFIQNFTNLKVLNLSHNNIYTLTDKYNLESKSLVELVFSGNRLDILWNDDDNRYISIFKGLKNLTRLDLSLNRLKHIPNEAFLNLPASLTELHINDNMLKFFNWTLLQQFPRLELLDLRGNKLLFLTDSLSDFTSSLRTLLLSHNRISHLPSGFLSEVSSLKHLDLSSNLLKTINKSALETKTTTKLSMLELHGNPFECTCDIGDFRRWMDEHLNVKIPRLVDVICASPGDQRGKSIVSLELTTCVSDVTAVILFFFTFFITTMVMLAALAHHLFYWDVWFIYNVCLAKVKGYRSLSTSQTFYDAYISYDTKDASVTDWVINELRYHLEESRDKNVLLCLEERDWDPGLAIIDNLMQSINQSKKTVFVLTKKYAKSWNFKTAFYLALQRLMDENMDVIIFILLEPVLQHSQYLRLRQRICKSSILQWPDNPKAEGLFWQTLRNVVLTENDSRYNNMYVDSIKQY
Protocol: (§1) HEK Blue hTLR8 cells or HEK Blue hTLR7 cells were cultured in DMEM medium supplemented with 10% fetal bovine serum, penicillin (100 U/mL) and streptomycin ([…]). Thereafter, cells were seeded in 96-well plate (45,000 cells per well), and were cultured for 24 hours in a humidified incubator (37° C., 5% CO2).
After 24 hours, the supernatant and suspending cells were aspirated and replaced with fresh serum-free DMEM.
(§2) After 24 hours, 50 μL of the medium was aspirated from each well and then added to a new 96-well plate, followed by the addition of 50 μL of Quanti-Blue in each well and the incubation at 37° C. in darkness. Changes in color would occur in the […] within 60 minutes, and the absorbance was measured at 620 nm by using the multi-mode plate reader Vrioskan Flash. Inhibition rate (%)=[R848 (OD620)−Compound (OD620)]/[R848 (OD620)−Control (OD620)]×100%. Among these, the control group was only added with the same amount of cells. Finally, the software Prism 6.0 was utilized to plot a graph and calculate IC50 values. Or, the activity of the cells treated with ligand and DMSO was defined as 100% activity, and the activity of the untreated cells was defined as 0% activity.

TLR7 = target: T2, TLR7 (Homo sapiens, UniProt Q9NYK1); assay: Inhibition of R848-induced signaling in HEK-Blue hTLR7 cell line (Quanti-Blue); assay type: cell-based
T2 construct: host or cells: HEK-Blue hTLR7 (HEK293-derived SEAP reporter cells)
T2 sequence (Q9NYK1 27-1049): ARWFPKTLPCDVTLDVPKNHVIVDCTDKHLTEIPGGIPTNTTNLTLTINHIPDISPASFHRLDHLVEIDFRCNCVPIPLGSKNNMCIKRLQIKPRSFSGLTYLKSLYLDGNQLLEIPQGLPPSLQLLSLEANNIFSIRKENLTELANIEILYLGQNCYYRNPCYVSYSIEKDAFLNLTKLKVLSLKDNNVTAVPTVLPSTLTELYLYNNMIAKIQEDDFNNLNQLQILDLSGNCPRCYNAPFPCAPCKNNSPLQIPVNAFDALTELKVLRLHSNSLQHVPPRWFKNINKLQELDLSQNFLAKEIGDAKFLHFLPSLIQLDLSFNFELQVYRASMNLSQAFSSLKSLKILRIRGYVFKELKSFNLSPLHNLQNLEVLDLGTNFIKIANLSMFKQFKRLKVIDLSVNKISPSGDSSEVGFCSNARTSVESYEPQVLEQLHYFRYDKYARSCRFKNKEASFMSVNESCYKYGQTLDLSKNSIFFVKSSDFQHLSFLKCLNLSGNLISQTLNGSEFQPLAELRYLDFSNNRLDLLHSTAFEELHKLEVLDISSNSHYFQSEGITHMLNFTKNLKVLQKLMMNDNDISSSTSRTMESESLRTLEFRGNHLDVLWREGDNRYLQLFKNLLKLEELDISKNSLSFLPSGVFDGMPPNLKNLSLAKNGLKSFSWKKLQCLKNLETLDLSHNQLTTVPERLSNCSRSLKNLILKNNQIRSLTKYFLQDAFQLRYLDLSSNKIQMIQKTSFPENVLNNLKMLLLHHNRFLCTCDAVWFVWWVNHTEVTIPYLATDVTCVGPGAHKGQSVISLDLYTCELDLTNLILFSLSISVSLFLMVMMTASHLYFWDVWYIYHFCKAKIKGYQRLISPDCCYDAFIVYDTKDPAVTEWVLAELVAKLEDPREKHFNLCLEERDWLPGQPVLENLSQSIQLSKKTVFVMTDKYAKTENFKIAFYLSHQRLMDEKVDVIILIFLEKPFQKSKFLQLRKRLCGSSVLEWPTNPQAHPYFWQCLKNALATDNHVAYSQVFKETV
Protocol: as §1
After 24 hours, the supernatant and suspending cells were aspirated and replaced with fresh serum-free DMEM. Cells were treated with 1 μg/mL of R848 (agonist of TLR7/8) or 5 μg/mL of ssRNA40/LyoVec or 5 μg/mL of ORN06/LyoVec (InvivoGen) and compounds with specified concentrations, and were placed in a humidified incubator (37° C., 5% CO2) for co-culture.
as §2

HEK-Blue hTLR8 cell line = assay: Toxicity test of compounds (CCK-8 cell viability); assay type: cell-based, human; design: key to WST1 (normalized toxicity effect): viability relative to control well (background-subtracted OD), 1 = control; details: normalized cell viability, HEK-Blue cell lines
Protocol: In the 96-well plate used for the above-mentioned activity test of compounds (remaining 50 μL of culture medium containing cells), 5 μL of CellCountingKit-8 (CCK-8) Supermix was added to each well. Note that the introduction of air bubbles into the wells should be avoided since the air bubbles would interfere with the detection of OD value.
The culture plate was incubated in an incubator for 1 to 4 hours,
The edge of the 96-well plate could be tapped gently before reading the plate, and then the absorbance at 450 nm was measured by using the multi-mode plate reader.
Cell viability (%) was determined using the following formula: cell viability (%)=([Compound well ([…])−Background well (OD450)]/[Control well ([…])−Background well (OD450)])×100%. Among these, the background well was only added with the medium and CCK-8 reagent, the control well was only added with the medium, cells, R848 and CCK-8, and the compound wells were added with the medium, cells, R848, compounds in different concentrations, and CCK-8.

Compound	Remaining R848-induced TLR8 signaling (normalized activity; ligand+DMSO = 1, untreated = 0) (TLR8)	TLR7 (normalized inhibitory effect on R848-induced signaling) (TLR7)	WST1 (normalized toxicity effect) (HEK-Blue hTLR8 cell line)
CCOCc1nc(Br)c(-c2ccccc2)n1CC(C)(C)O [Compound 52, 1-[4-bromo-2-(ethoxymethyl)-5-phenyl-1H-imidazole-1-yl]-2-methylpropan-2-ol]	0.3 ± 0.2	0.8 ± 0.2	1.1 ± 0.3
CCOCc1nc(C(=O)O)c(-c2ccccc2)n1CC(C)(C)O [Compound 54, 2-(ethoxymethyl)-1-(2-hydroxy-2-methylpropyl)-5-phenyl-1H-imidazole-4-carboxylic acid]	0.9 ± 0.2	0.9 ± 0.2	1.1 ± 0.3
CCOCc1nc(Br)c(-c2ccccc2)n1CC(C)C [Compound 57, 4-bromo-2-(ethoxymethyl)-1-(2-methylpropyl)-5-phenyl-1H-imidazole]	0.01 ± 0.01	0.1 ± 0.1	0.7 ± 0.1
CCOCc1nc(I)c(-c2ccc3ccccc3c2)n1CC(C)(C)O [Compound 63, 1-(2-(ethoxymethyl)-4-iodo-5-(naphthalen-2-yl)-1H-imidazole-1-yl)-2-methylpropan-2-ol]	0.9 ± 0.1	0.9 ± 0.2	1.0 ± 0.1
CCOCc1nc(Cl)c(-c2ccccc2)n1CC(C)(C)O [Compound 51, 1-[4-chloro-2-(ethoxymethyl)-5-phenyl-1H-imidazole-1-yl]-2-methylpropan-2-ol]	0.6 ± 0.1	1.1 ± 0.2	0.9 ± 0.2
CCOCc1nc(I)c(-c2ccc(C)cc2)n1CC(C)(C)O [Compound 64, 1-(2-(ethoxymethyl)-4-iodo-5-(p-tolyl)-1H-imidazole-1-yl)-2-methylpropan-2-ol]	0.9 ± 0.1	0.9 ± 0.2	1.1 ± 0.1
CCOCc1nc(C(=O)OC)c(-c2ccccc2)n1CC(C)(C)O [Compound 42, methyl 2-(ethoxymethyl)-1-(2-hydroxy-2-methylpropyl)-5-phenyl-1H-imidazole-4-carboxylate]	0.9 ± 0.2	0.9 ± 0.2	0.9 ± 0.1
CCOCc1nc(C(N)=O)c(-c2ccccc2)n1CC(C)(C)O [Compound 40, 2-(ethoxymethyl)-1-(2-hydroxy-2-methylpropyl)-5-phenyl-1H-imidazole-4-carboxamide]	0.7 ± 0.1	1.0 ± 0.1	0.8 ± 0.3
CCOCc1nc(I)c(-c2cccc(-c3ccccc3)c2)n1CC(C)(C)O [Compound 61, 1-(5-([1,1′-biphenyl]-3-yl)-2-(ethoxymethyl)-4-iodo-1H-imidazole-1-yl)-2-methylpropan-2-ol]	0.01 ± 0.01	0.9 ± 0.1	0.9 ± 0.2
CCOCc1nc(Cl)c(-c2ccccc2)n1CC(C)C [Compound 56, 4-chloro-2-(ethoxymethyl)-1-(2-methylpropyl)-5-phenyl-1H-imidazole]	0.5 ± 0.2	0.6 ± 0.2	0.7 ± 0.2
CCOCc1nc(I)c(-c2ccc(-c3ccccc3)cc2)n1CC(C)(C)O [Compound 60, 1-(5-([1,1′-biphenyl]-4-yl)-2-(ethoxymethyl)-4-iodo-1H-imidazole-1-yl)-2-methylpropan-2-ol]	0.3 ± 0.1	1.0 ± 0.1	0.6 ± 0.1
CCOCc1ncc(-c2ccccc2)n1CC(C)C [Compound 55, 2-(ethoxymethyl)-1-(2-methylpropyl)-5-phenyl-1H-imidazole]	0.8 ± 0.1	0.6 ± 0.2	0.9 ± 0.3
CCOCc1nc(CF)c(-c2ccccc2)n1CC(C)(C)O [Compound 46, 1-[2-(ethoxymethyl)-4-(fluoromethyl)-5-phenyl-1H-imidazole-1-yl]-2-methylpropan-2-ol]	1.0 ± 0.2	0.8 ± 0.2	0.9 ± 0.3
